Key:
[1] = test system: cultured primary human fibroblast from MPS patients; test: In vitro MPS model: accumulation of GAG fragments in fibroblasts; type: cell-based
Excerpt: Substrate reduction therapy (SRT) is validated for MPS. The non-specific inhibitor of sulfation, sodium chlorate is used herein for such validation. […] In certain instances, in vitro MPS models used herein are based on measuring the accumulation of GAG fragments in cultured primary human fibroblast from MPS patients. In some instances, the GAGs that accumulate in MPS patients are much smaller than normal tissue GAGs and they lack a core protein on their reducing termini. Based on these features the in vitro MPS model used in certain instances herein is based on a method of tagging reducing ends of the GAGs with a detectable label and analyzing (i.e., detecting and/or measuring) the detectable labels using a device suitable for detecting the label (e.g., an HPLC with a fluorimeter).

[2] = test system: FGF2 binding to heparan sulfate in human cervical cancer cells (HeLa); test: FGF2 binding to heparan sulfate in HeLa cells, flow cytometry; type: cell-based; details: various concentrations
Description: (§1) FIG. 2 illustrates the impact of 4-(4-(3,4-dimethoxyphenyl)-6-phenylpyrimidin-2-yl)morpholine on the ability of FGF2 to bind to heparan sulfate in human cervical cancer cells (HeLa). FGF2 binding to heparan sulfate is measured by culturing HeLa cells in the presence of the heparan sulfate modulator. After 2 days of growth, the cells are released with 5 mM EDTA and probed with biotinylated FGF2 for 30 minutes on ice. After washing unbound FGF2, bound FGF2 is detected with streptavidin-Cy5-PE. After washing to remove unbound streptavidin-Cy5-PE, the bound probe is quantified using a flow cytometry. The heparan sulfate inhibitors are tested on at least three independent occasions, in duplicate over a dose range. Heparan sulfate specificity is determined by probing with lectins to other glycan classes (chondroitin sulfate, O-linked, N-linked, etc.). FIG. 3 illustrates the impact of 4-(4-(3,4-dimethoxyphenyl)-6-phenylpyrimidin-2-yl)morpholine on the sulfation of heparan sulfate found in human cervical cancer cells (HeLa). The sulfation of heparan sulfate is determined by culturing HeLa cells in the presence of the heparan sulfate modulator. Heparan sulfate is isolated from treated and untreated cells by lysing the cells in 0.1 N NaOH. After neutralization, the cell lysate is treated with pronase to degrade the core proteins. Subsequently, the heparan sulfate is purified on diethylaminoethyl (DEAE) resin, eluted with 1.0 M NaCl, desalted using gel filtration and dried. To characterize the composition of heparan sulfate produced in the presence of the heparan sulfate modulator, the isolate heparan sulfate is digested to disaccharides using a blend of heparin lyase I, II, and III (from flavobacterium heparinum). The disaccharides are quantified by HPLC using a propac PA1 column using known heparan sulfate disaccharides as standards. Specifically, FIG. 3A illustrates the impact of 4-(4-(3,4-dimethoxyphenyl)-6-phenylpyrimidin-2-yl)morpholine on the amount of specific disaccharide units; and FIG. 3B illustrates the impact of 4-(4-(3,4-dimethoxyphenyl)-6-phenylpyrimidin-2-yl)morpholine on the amount of specific glucosamine and uronic acid modifications.
as §1, with “FIG. 4” for “FIG. 2”, “of 7-((3-chlorophenyl)(pyridin-2-ylamino)methyl)-2-methylquinolin-8-ol” for “of 4-(4-(3,4-dimethoxyphenyl)-6-phenylpyrimidin-2-yl)morpholine”, “FIG. 5” for “FIG. 3”, “heparinum). […]” for “heparinum). The disaccharides are quantified by HPLC using a propac PA1 column using known heparan sulfate disaccharides as standards. Specifically, FIG. 3A illustrates the impact of 4-(4-(3,4-dimethoxyphenyl)-6-phenylpyrimidin-2-yl)morpholine on the amount of specific disaccharide units; and FIG. 3B illustrates the impact of 4-(4-(3,4-dimethoxyphenyl)-6-phenylpyrimidin-2-yl)morpholine on the amount of specific glucosamine and uronic acid modifications.”

[3] = test system: synthesis of PAPs / heparan sulfate sulfation; details: cited from earlier work
SKOV3 cells = test: Human ovarian cancer model, SKOV3 subcutaneous tumors in female nude mice; type: in vivo; details: 1, 3 and 10 mg/kg/day, two IP injections daily
Description: Compound 9 was tested for anti-cancer activity in a Human ovarian cancer model. Briefly, 5 million SKOV3 cells were injected in 100 ul mixed with matrigel subcutaneously into female nude mice. The tumors were allowed to grow to 0.1 cm^3 then the mice were randomized into four groups (Vehicle, 1, 3, and 10 mg/kg/day). Each group received the indicated daily dose divided into two IP injections. Vehicle alone received the formulation only.

heparan sulfate = test: Heparan sulfate structure in liver and tumor after sacrifice, SKOV3 model; type: in vivo, mice
Description: (§2) After sacrifice, the liver and tumor were analyzed for changes in the structure of heparan sulfate.

[4] = test system: 6-O sulfation of heparan sulfate; test: Change in the structure (sulfation) of heparan sulfate in cultured human cells; type: cell-based; details: FIG. 21A
Description: FIG. 2 illustrates the impact of 4-(4-(3,4-dimethoxyphenyl)-6-phenylpyrimidin-2-yl)morpholine on the ability of FGF2 to bind to heparan sulfate in human cervical cancer cells (HeLa). FGF2 binding to heparan sulfate is measured by culturing HeLa cells in the presence of the heparan sulfate modulator. After 2 days of growth, the cells are released with 5 mM EDTA and probed with biotinylated FGF2 for 30 minutes on ice. After washing unbound FGF2, bound FGF2 is detected with streptavidin-Cy5-PE. After washing to remove unbound streptavidin-Cy5-PE, the bound probe is quantified using a flow cytometry. The heparan sulfate inhibitors are tested on at least three independent occasions, in duplicate over a dose range. Heparan sulfate specificity is determined by probing with lectins to other glycan classes (chondroitin sulfate, O-linked, N-linked, etc.). FIG. 3 illustrates the impact of 4-(4-(3,4-dimethoxyphenyl)-6-phenylpyrimidin-2-yl)morpholine on the sulfation of heparan sulfate found in human cervical cancer cells (HeLa). The sulfation of heparan sulfate is determined by culturing HeLa cells in the presence of the heparan sulfate modulator. […] The disaccharides are quantified by HPLC using a propac PA1 column using known heparan sulfate disaccharides as standards. […]
as §2

[5] = in vitro model of MPS IIIA, human MPS IIIA fibroblasts

Structure (SMILES)	inhibition of heparan sulfate biosynthesis ([1]; human MPS IIIA fibroblasts)	GAG accumulation [1, 5]	inhibition of FGF-2 binding to heparan sulfate [2]	further results
CC(C)(C)C1CCc2c(sc3nc(C(F)(F)F)[nH]c(=O)c23)C1 (stereo not drawn) [compound 7]	inhibition of heparan sulfate biosynthesis	reduce GAG accumulation	inhibition of FGF-2 binding	
CC(C)C(=O)NC(c1cccs1)c1cc([N+](=O)[O-])c2cccnc2c1O (stereo not drawn) [compound 5, 7-((thiophen-2-yl)(isobutoylamino)methyl)-5-nitroquinolin-8-ol]	inhibition of heparan sulfate biosynthesis	reduce GAG accumulation	inhibition of FGF-2 binding	
Cc1ccc2ccc(C(Nc3ccccn3)c3ccccc3F)c(O)c2n1 (stereo not drawn) [compound 3, 7-((2-fluorophenyl)(pyridin-2-ylamino)methyl)-2-methylquinolin-8-ol]			inhibition of FGF-2 binding	
CCc1cc(=O)oc2cc(Oc3ccc([N+](=O)[O-])cc3C(F)(F)F)ccc12 [compound 6, 4-ethyl-7-(4-nitro-2-(trifluoromethyl)phenoxy)-2H-chromen-2-one]			inhibition of FGF-2 binding	
[Na+].[O-][Cl+2]([O-])[O-] [sodium chlorate, reference compound]		reduction of GAG accumulation		GAG accumulation ([1]; in vitro model of MPS I): reduction of GAG accumulation; GAG accumulation ([1]; in vitro model of MPS II): reduction of GAG accumulation; synthesis of PAPs (sulfate donor) ([3]; 30-60 mM): inhibits the synthesis of PAPs; sulfation of heparan sulfate produced by cells ([3]; cells grown in the presence of the substance): reduced sulfation
Cc1ccc2ccc(C(Nc3ccccn3)c3cccc(Cl)c3)c(O)c2n1 (stereo not drawn) [compound 2, 7-((3-chlorophenyl)(pyridin-2-ylamino)methyl)-2-methylquinolin-8-ol]			inhibition of FGF-2 binding	
COc1ccc(-c2cc(-c3ccccc3)nc(N3CCOCC3)n2)cc1OC [compound 1, 4-(4-(3,4-dimethoxyphenyl)-6-phenylpyrimidin-2-yl)morpholine]	inhibition of heparan sulfate biosynthesis	reduce GAG accumulation	inhibition of FGF-2 binding	
O=C(NC(=S)N(Cc1ccccc1)Cc1ccccc1)c1cccc(Cl)c1 [compound 8]	inhibition of heparan sulfate biosynthesis	reduce GAG accumulation	inhibition of FGF-2 binding	
C[S+]([O-])c1ccc(-c2nc(-c3ccc(F)cc3)c(-c3ccncc3)[nH]2)cc1 (stereo not drawn) [compound 9]				tumor growth (SKOV3 cells): blocked tumor growth at all doses tested; heparan sulfate biosynthesis in liver (heparan sulfate; liver of treated animals, after sacrifice, 1, 3 and 10 mg/kg/day IP): altered in the liver of treated animals in a dose dependent manner; changes in the structure of heparan sulfate in tumor (heparan sulfate; small tumor remaining in treated animals, after sacrifice): No changes were detected; 6-O sulfation of heparan sulfate [4]: inhibits the 6-O sulfation of heparan sulfate
